Measured values as given in patent publication US20140093457A1, “Compositions, methods and kits for remineralization and inhibition of dental caries in teeth” (President and Fellows of Harvard College, priority 2010, published 2014).
Read-outs that look alike come from different tables or passages of the source.

How the values were obtained:
[1] = Removal of OsteoSense 750 from hydroxyapatite, spectrophotometry at 750 nm; settings: hydrogen peroxide 30%, phosphoric acid 40%
Protocol: The tubes were vortexed, and the mixture was allowed to settle to obtain a supernatant. Each supernatant was collected and analyzed for probe content using a spectrophotomer.
The HA sample was washed with PBS and a spectrophotometric scan of the wash solution was performed.

[2] = RFU comparison of solutions to release OsteoSense 750 from HA
Protocol: Variables included conditions of pH, temperature, and presence of 1% calcium chloride.
Three conditions were tested: incubation for 15 minutes at 37° C. after vortexing; adjusting pH to 6.5 at 23° C. after vortexing; and addition of 1% calcium chloride to each solution and incubation at room temperature after vortexing.

[3] = hydrogen peroxide 38%
Protocol: The efficacy of removal of the probe by the solution was determined by criteria such as extent of fluorescence remaining on a tooth after rinse, or fluorescence extracted from hydroxyapatite into a rinse solution.

[4] = 1% solution with calcium chloride (1%), room temperature
[5] = 1% solution, 15 minutes at 37° C.
[6] = 1% solution, pH 6.5, room temperature
[7] = 5% solution with calcium chloride (1%), room temperature
[8] = 5% solution, 15 minutes at 37° C.
[9] = 5% solution, pH 6.5, room temperature
[10] = 10% solution with calcium chloride (1%), room temperature
[11] = 10% solution, 15 minutes at 37° C.
[12] = 10% solution, pH 6.5, room temperature
[13] = 20% solution with calcium chloride (1%), room temperature
[14] = 20% solution, 15 minutes at 37° C.
[15] = 20% solution, pH 6.5, room temperature

SMILES: O=P(O)(O)O [phosphoric acid (PA), phosphoric acid]
- spectrometric signal at 750 nm in supernatant (release of OsteoSense 750 from HA) [1]: definite peak at 750 nm
- % released of total OsteoSense [2, 4]: 1.01%
- % released of total reference value [2, 4]: 2.27%
- Raw RFU value [2, 4]: 0.38 RFU
- % released of total OsteoSense [2, 5]: 4.61%
- % released of total reference value [2, 5]: 7.36%
- Raw RFU value [2, 5]: 1.73 RFU
- % released of total OsteoSense [2, 6]: 6.17%
- % released of total reference value [2, 6]: 18.74%
- Raw RFU value [2, 6]: 2.31 RFU
- % released of total OsteoSense [2, 7]: 9.44%
- % released of total reference value [2, 7]: 40.79%
- Raw RFU value [2, 7]: 3.54 RFU
- % released of total OsteoSense [2, 8]: 9.78%
- % released of total reference value [2, 8]: 18.94%
- Raw RFU value [2, 8]: 3.67 RFU
- % released of total OsteoSense [2, 9]: 28.38%
- % released of total reference value [2, 9]: 39.54%
- Raw RFU value [2, 9]: 10.64 RFU
- % released of total OsteoSense [2, 10]: 10.57%
- % released of total reference value [2, 10]: 43.29%
- Raw RFU value [2, 10]: 3.97 RFU
- % released of total OsteoSense [2, 11]: 4.37%
- % released of total reference value [2, 11]: 9.10%
- Raw RFU value [2, 11]: 1.64 RFU
- % released of total OsteoSense [2, 12]: 45.32%
- % released of total reference value [2, 12]: 67.03%
- Raw RFU value [2, 12]: 17.00 RFU
- % released of total OsteoSense [2, 13]: 5.12%
- % released of total reference value [2, 13]: 11.99%
- Raw RFU value [2, 13]: 1.92 RFU
- % released of total OsteoSense [2, 14]: 3.54%
- % released of total reference value [2, 14]: 8.51%
- Raw RFU value [2, 14]: 1.33 RFU
- % released of total OsteoSense [2, 15]: 25.34%
- % released of total reference value [2, 15]: 39.91%
- Raw RFU value [2, 15]: 9.50 RFU

SMILES: OO [hydrogen peroxide]
- spectrometric signal at 750 nm in supernatant (release of OsteoSense 750 from HA) [1]: no signal at 750 nm
- fluorescence of OsteoSense 750 bound to caries lesion after application with a syringe [3]: eliminated fluorescence
- fluorescence of OsteoSense 750 bound to the tooth after rinse ([3]; ten minutes after application): substantially eliminated
- fluorescence of OsteoSense 750 bound to the tooth after rinse ([3]; three minutes after application): substantially reduced
